Measured values from paper PMC2229644 (The Journal of General Physiology, 1999).

Assays:
[1] = tested on: potassium channels; details: cited from earlier work
[2] = tested on: MaxiK-channel (large conductance Ca-activated K channel); details: cited from earlier work
[3] = target: Shaker H4 Δ(6-46) K channel (inactivation-removed, Shaker IR) (Drosophila melanogaster, UniProt P08510, DEL6-46); format: cell-based
[4] = tested on: Shaker K channel, inactivation-removed; details: cited from earlier work

Shaker H4 Δ(6-46) K channel (inactivation-removed, Shaker IR), sequence (P08510 1-655 with tags or gaps DEL6-46): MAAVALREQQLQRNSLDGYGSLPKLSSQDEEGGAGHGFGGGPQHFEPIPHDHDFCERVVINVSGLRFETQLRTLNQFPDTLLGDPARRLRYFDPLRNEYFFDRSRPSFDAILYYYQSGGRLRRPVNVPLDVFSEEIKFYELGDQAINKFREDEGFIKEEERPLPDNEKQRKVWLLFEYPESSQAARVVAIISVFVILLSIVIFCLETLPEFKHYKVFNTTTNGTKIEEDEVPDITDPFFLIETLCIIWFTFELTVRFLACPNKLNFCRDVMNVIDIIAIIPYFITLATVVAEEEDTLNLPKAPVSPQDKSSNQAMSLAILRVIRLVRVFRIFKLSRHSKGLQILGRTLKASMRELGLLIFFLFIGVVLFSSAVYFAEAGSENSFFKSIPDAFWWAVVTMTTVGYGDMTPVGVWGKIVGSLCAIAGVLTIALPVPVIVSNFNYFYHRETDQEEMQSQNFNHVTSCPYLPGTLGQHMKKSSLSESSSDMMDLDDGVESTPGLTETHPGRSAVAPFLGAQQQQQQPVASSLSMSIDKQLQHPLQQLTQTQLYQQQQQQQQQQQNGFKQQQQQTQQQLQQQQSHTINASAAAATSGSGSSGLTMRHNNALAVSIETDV

Substance | association rate constant, k on [1] [M⁻¹ s⁻¹] | effective valence zδ in absence of internally present permeant cations [2] | effect on apparent association rate of κ-PVIIA [3] | effect on dissociation rate of κ-PVIIA [3] | underestimation of κ-PVIIA k on by 1 mM TEA^+ [3] [%] | effect of TEA^+ on CTX association and dissociation rates [2] | effect of external TEA^+ on extent of κ-PVIIA blockade [4]
charybdotoxin [CTX] | 6.1e+07 | zδ vanishes | – | – | – | – | –
tetraethylammonium [TEA^+] | – | – | decreases the apparent association rate | little effect on the dissociation rate | ~10 | only reduces the association rate of CTX | reduces the extent of the blockade
